Test results: the NIST ThermoML archive (doi:10.1021/je800248w)

Experiments:
[1] = excess molar enthalpy (molar enthalpy of mixing); xn = mol fraction of the nth substance listed; settings: 101 kPa, Liquid, Calvet calorimetry
[2] = molar heat capacity at constant pressure; xn = mol fraction of the nth substance listed; settings: 101.3 kPa, Liquid, Small sample (50 mg) DSC

CCn1cc[n+](C)c1.O=C([O-])C(F)(F)F [1-ethyl-3-methylimidazolium trifluoroacetate] + O
Settings	excess molar enthalpy [kcal/mol]	molar heat capacity at constant pressure [J/K/mol]
[1], 313.04 K, x2 = 0.2499	-0.315	–
[1], 313.04 K, x2 = 0.25	-0.315	–
[1], 313.04 K, x2 = 0.498	-0.511	–
[1], 313.04 K, x2 = 0.4981	-0.511	–
[1], 313.04 K, x2 = 0.7483	-0.49	–
[1], 313.04 K, x2 = 0.7484	-0.49	–
[1], 323.04 K, x2 = 0.2474	-0.312	–
[1], 323.04 K, x2 = 0.2485	-0.313	–
[1], 323.04 K, x2 = 0.4967	-0.501	–
[1], 323.04 K, x2 = 0.4993	-0.502	–
[1], 323.04 K, x2 = 0.7472	-0.469	–
[1], 323.04 K, x2 = 0.7482	-0.468	–
[1], 333.06 K, x2 = 0.2464	-0.311	–
[1], 333.06 K, x2 = 0.2477	-0.312	–
[1], 333.06 K, x2 = 0.4934	-0.492	–
[1], 333.06 K, x2 = 0.4966	-0.494	–
[1], 333.06 K, x2 = 0.7466	-0.449	–
[1], 333.06 K, x2 = 0.7476	-0.448	–
[1], 348.06 K, x2 = 0.2486	-0.312	–
[1], 348.06 K, x2 = 0.2489	-0.311	–
[1], 348.06 K, x2 = 0.4979	-0.478	–
[1], 348.06 K, x2 = 0.4994	-0.478	–
[1], 348.06 K, x2 = 0.748	-0.412	–
[1], 348.06 K, x2 = 0.7484	-0.411	–
[2], 283.15 K, x2 = 0	–	308
[2], 283.15 K, x2 = 0.2025	–	264
[2], 283.15 K, x2 = 0.3973	–	226
[2], 283.15 K, x2 = 0.5817	–	182
[2], 283.15 K, x2 = 0.7562	–	139
[2], 283.15 K, x2 = 0.842	–	117
[2], 283.15 K, x2 = 0.9256	–	99
[2], 283.15 K, x2 = 0.9668	–	87
[2], 283.15 K, x2 = 0.9912	–	78
[2], 293.15 K, x2 = 0	–	313
[2], 293.15 K, x2 = 0.2025	–	269
[2], 293.15 K, x2 = 0.3973	–	231
[2], 293.15 K, x2 = 0.5817	–	186
[2], 293.15 K, x2 = 0.7562	–	143
[2], 293.15 K, x2 = 0.842	–	120
[2], 293.15 K, x2 = 0.9256	–	100
[2], 293.15 K, x2 = 0.9668	–	90
[2], 293.15 K, x2 = 0.9912	–	80
[2], 303.15 K, x2 = 0	–	320
[2], 303.15 K, x2 = 0.2025	–	274
[2], 303.15 K, x2 = 0.3973	–	238
[2], 303.15 K, x2 = 0.5817	–	191
[2], 303.15 K, x2 = 0.7562	–	147
[2], 303.15 K, x2 = 0.842	–	122
[2], 303.15 K, x2 = 0.9256	–	102
[2], 303.15 K, x2 = 0.9668	–	91
[2], 303.15 K, x2 = 0.9912	–	80
[2], 313.15 K, x2 = 0	–	324
[2], 313.15 K, x2 = 0.2025	–	276
[2], 313.15 K, x2 = 0.3973	–	241
[2], 313.15 K, x2 = 0.5817	–	194
[2], 313.15 K, x2 = 0.7562	–	150
[2], 313.15 K, x2 = 0.842	–	124
[2], 313.15 K, x2 = 0.9256	–	103
[2], 313.15 K, x2 = 0.9668	–	92
[2], 313.15 K, x2 = 0.9912	–	81
[2], 323.15 K, x2 = 0	–	328
[2], 323.15 K, x2 = 0.2025	–	280
[2], 323.15 K, x2 = 0.3973	–	245
[2], 323.15 K, x2 = 0.5817	–	198
[2], 323.15 K, x2 = 0.7562	–	153
[2], 323.15 K, x2 = 0.842	–	126
[2], 323.15 K, x2 = 0.9256	–	104
[2], 323.15 K, x2 = 0.9668	–	92
[2], 323.15 K, x2 = 0.9912	–	81
[2], 333.15 K, x2 = 0	–	332
[2], 333.15 K, x2 = 0.2025	–	285
[2], 333.15 K, x2 = 0.3973	–	251
[2], 333.15 K, x2 = 0.5817	–	201
[2], 333.15 K, x2 = 0.7562	–	155
[2], 333.15 K, x2 = 0.842	–	127
[2], 333.15 K, x2 = 0.9256	–	104
[2], 333.15 K, x2 = 0.9668	–	92
[2], 333.15 K, x2 = 0.9912	–	81
[2], 343.15 K, x2 = 0	–	337
[2], 343.15 K, x2 = 0.2025	–	290
[2], 343.15 K, x2 = 0.3973	–	254
[2], 343.15 K, x2 = 0.5817	–	204
[2], 343.15 K, x2 = 0.7562	–	157
[2], 343.15 K, x2 = 0.842	–	129
[2], 343.15 K, x2 = 0.9256	–	105
[2], 343.15 K, x2 = 0.9668	–	92
[2], 343.15 K, x2 = 0.9912	–	81
